Reference: ChEMBL document CHEMBL1201862, “PubChem BioAssay data set” (2004)
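All cell lines were grown in 96-well plates and treated with compound for 48 hours. GI50 is the concentration that inhibits growth by half.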 Active and inactive are the calls of the source. Rule as the data show it: active = GI50 up to about 1.1 µM and inactive = higher.

How the values were obtained:
Assay in all cases: NCI tumour cell line growth inhibition, 48 h
[1] = system: K562
[2] = system: ACHN
[3] = system: HCT-116
[4] = system: U-251
[5] = system: OVCAR-8
[6] = system: DMS-114
[7] = system: CCRF-CEM
[8] = system: HOP-18
[9] = system: LOX IMVI
[10] = system: HOP-62
[11] = system: Malme-3M
[12] = system: OVCAR-4
[13] = system: A549
[14] = system: DLD-1
[15] = system: OVCAR-5
[16] = system: XF498
[17] = system: LXFL 529
[18] = system: NCI-H23
[19] = system: IGROV-1
[20] = system: SF-539
[21] = system: HL-60
[22] = system: SF-268
[23] = system: MOLT-4
[24] = system: SK-OV-3
[25] = system: KM12
[26] = system: DMS-273
[27] = system: HCT-15
[28] = system: NCI-H522
[29] = system: 786-0
[30] = system: M19-MEL
[31] = system: COLO 205
[32] = system: SNB-75
[33] = system: NCI-H226
[34] = system: KM-20L2
[35] = system: SNB-19
[36] = system: M14
[37] = system: RPMI-8226
[38] = system: RXF 393
[39] = system: A498
[40] = system: SNB-78
[41] = system: UACC-257
[42] = system: HOP-92
[43] = system: UO-31
[44] = system: NCI-H460
[45] = system: TK-10
[46] = system: HT-29
[47] = system: OVCAR-3
[48] = system: UACC-62
[49] = system: HCC 2998
[50] = system: SK-MEL-5
[51] = system: SK-MEL-2
[52] = system: SK-MEL-28
[53] = system: SF-295
[54] = system: EKVX
[55] = system: SN12C
[56] = system: SW-620
[57] = system: CAKI-1
[58] = system: Hs-578T
[59] = system: BT-549
[60] = system: SR
[61] = system: RXF 631
[62] = system: DU-145
[63] = system: MDA-MB-231
[64] = system: MDA-MB-435
[65] = system: PC-3
[66] = system: MCF7
[67] = system: T47D
[68] = system: NCI/ADR-RES
[69] = system: MDA-N

Measured: GI50

N#C/C(=C1\OC(=N)C(c2ccccc2)C1=O)c1ccccc1 (stereo not drawn)
inactive: [1] 22.6 µM | [2] 16.3 µM | [3] 17.6 µM | [4] > 100 µM | [5] 27.9 µM | [6] 29.5 µM | [7] 15.9 µM | [8] 28.6 µM | [9] 33.6 µM | [10] > 100 µM | [11] 18.9 µM | [12] 40.1 µM | [13] > 100 µM | [14] 18.3 µM | [15] > 100 µM | [16] 16.9 µM | [17] 17.8 µM | [18] > 10 µM | [19] 30.5 µM | [20] > 31.6 µM | [21] 23.4 µM | [22] 48.3 µM | [23] 18.7 µM | [24] > 100 µM | [25] 48.2 µM | [26] 49.9 µM | [28] 8.81 µM | [29] 25 µM | [30] 24 µM | [31] 22.6 µM | [32] 28.3 µM | [33] > 64.3 µM | [34] 98.6 µM | [35] > 100 µM | [36] 24.4 µM | [37] 22.9 µM | [38] 17.9 µM | [39] > 100 µM | [40] > 77.1 µM | [41] 23 µM | [42] 33.8 µM | [43] 19.6 µM | [44] > 100 µM | [45] 29.7 µM | [46] 22.5 µM | [47] 28.1 µM | [48] 22.2 µM | [49] 90.2 µM | [50] 26.9 µM | [51] > 52.2 µM | [52] 13.3 µM | [53] > 100 µM | [54] 36.5 µM | [55] 35 µM | [56] 23.1 µM | [57] 30.6 µM
22.1 µM: [27]

C[C@H]1CCC2C(OC(=O)[C@@H]2CN(C)C)[C@]2(C)C(=O)C=CC12O (stereo partly drawn)
inactive: [1] 3.23 µM | [2] 2.17 µM | [3] 2.86 µM | [4] 17.5 µM | [5] 1.57 µM | [6] 2.93 µM | [7] 1.87 µM | [58] 4.27 µM | [8] 24.2 µM | [9] 4.59 µM | [10] 23.9 µM | [59] 5.37 µM | [11] 3.7 µM | [12] 5.62 µM | [13] 24.8 µM | [14] 2.99 µM | [15] 14.1 µM | [17] 3.01 µM | [18] 3.26 µM | [19] 15.8 µM | [60] 2.47 µM | [20] 3.64 µM | [61] 1.31 µM | [21] 1.65 µM | [22] 6.79 µM | [62] 10.8 µM | [23] 2.82 µM | [24] 16.9 µM | [25] 4.69 µM | [26] 3.12 µM | [63] 9.55 µM | [28] 1.32 µM | [29] 5.26 µM | [30] 4.26 µM | [31] 4.74 µM | [32] 4.6 µM | [64] 4.47 µM | [33] 7.01 µM | [34] 2.17 µM | [35] 22.9 µM | [36] 4.06 µM | [37] 2.67 µM | [38] 1.65 µM | [39] 14.2 µM | [41] 4.86 µM | [42] 2.79 µM | [43] 10.9 µM | [44] 12.5 µM | [45] 6.68 µM | [46] 4.09 µM | [47] 3.76 µM | [48] 2.55 µM | [49] 5.2 µM | [50] 7.16 µM | [51] 9.44 µM | [65] 14.2 µM | [52] 2.43 µM | [53] 13.2 µM | [66] 7.5 µM | [67] 3.2 µM | [54] 4.02 µM | [68] 2 µM | [55] 4.09 µM | [56] 3.24 µM | [57] 7.06 µM | [69] 3.48 µM
